Like-named read-outs stand apart in the source and are kept apart here.
Assays:
Type in all cases: cell-based, human
BEAS-2B cells [1] = test: MTT cytotoxicity assay, BEAS-2B cells; details: for IC50: table prints none, read-out: average IC50, BEAS-2B cells (mean ± SD)
A549 cells [2] = test: Comet Assay DNA damage, A549 cells; design: key to DNA damage class (comet visual scoring, Classes 0–4): Class 4: Classes 0–4 to be used for visual scoring. The increased number of classes represents the increase in DNA damage severity; Class 3: Classes 0–4 to be used for visual scoring. The increased number of classes represents the increase in DNA damage severity; Class 2: Classes 0–4 to be used for visual scoring. The increased number of classes represents the increase in DNA damage severity; details: for DNA damage class (comet visual scoring, Classes 0–4): IC50 for 24 h (H2O2: 100 μM); for % DNA in tail / Olive tail moment / Tail length (px): IC50 for 24 h (H2O2: 100 μM, 20 minutes)
Description: (§1) The Comet Assay® kit (Trevigen, Inc, USA) was used to perform DNA damage activity analysis. […] After being detached by Accutase (BD™Bioscience, USA), the cells were collected and washed with ice-cold PBS. […] The cells were then lysed in the lysis solution at 4°C for 30 minutes. Then, the cells were kept in an alkaline unwinding solution at room temperature for 20 minutes to allow the DNA to unwind. The test was immediately followed by electrophoresis, performed at 21 V and 300 mA for 30 minutes. Slides were washed in 70% ethanol and water and stained with SYBR® gold nucleic acid gel stain (Invitrogen, Thermo Fisher Scientific, USA) before visualisation under the Olympus IX71 inverted fluorescence microscope (Olympus, Tokyo, Japan). A total of 50 cells were randomly selected and captured per sample at 100× magnification and analysed using the Open Comet Image J available at https:/www.cometbio.org/. Tail length, percentage of tail DNA, and Olive Tail Moment (OTM) were calculated for DNA damage assessment.

BEAS-2B cells [3] = test: Comet Assay DNA damage, BEAS-2B cells; design: key to DNA damage class (comet visual scoring, Classes 0–4): Class 4: Classes 0–4 to be used for visual scoring. The increased number of classes represents the increase in DNA damage severity; Class 3: Classes 0–4 to be used for visual scoring. The increased number of classes represents the increase in DNA damage severity; Class 2: Classes 0–4 to be used for visual scoring. The increased number of classes represents the increase in DNA damage severity; details: for DNA damage class (comet visual scoring, Classes 0–4): IC50 for 24 h (H2O2: 100 μM); for % DNA in tail / Olive tail moment / Tail length (px): IC50 for 24 h (H2O2: 100 μM, 20 minutes)
Description: as §1

A549 cells [4] = test: MTT cytotoxicity assay, A549 cells (with selectivity index); details: for Selectivity index (SI): IC50 normal cells (BEAS-2B) / IC50 cancer cells (A549); for IC50: table prints none, read-out: average IC50, A549 cells (mean ± SD)
Description: Both A549 and BEAS-2B cells were originally purchased from the American Type Culture Collection (ATCC, USA). Both cells were cultured in Dulbecco's Modified Eagle's Medium (DMEM: Gibco, USA) and 1 : 1 mixture of DMEM and Ham's F-12 (DMEM-F12; Gibco, USA) medium with phenol red and supplemented with 10% fetal bovine serum (FBS; Gibco, USA), 0.1% (v/v) penicillin-streptomycin, and 2 mM L-glutamine (PenStrep; Gibco, USA). The cell lines were maintained in a humidified environment at 37°C with 5% CO2.
The culture medium alone (without cells) was included as a blank for this test. A549 and BEAS-2B cells were treated with Cisplatin as a positive control. A total of 10 μL of MTT solution (5 mg/mL) was applied to each well at about 24 to 72 hours after treatment and was further incubated for 4 hours in the dark at 37°C with 5% CO2. Upon incubation, the mixture solution was aspirated, and 100 μL of dimethyl sulfoxide (DMSO) (Fisher Scientific, USA) was added to solubilise the purple formazan. The optical density (O.D.) of each sample was measured at a 570 nm wavelength using a microplate reader (BioTek Instruments, Inc, USA). The percentage (%) of cell viability was determined using the following formula [37]:(1) Cell viability%=O.D.treatment–O.D.blank/O.D.untreated cell–O.D.blank×100%.
Based on the measured cell viability (%), a graph was created to display the dose-response curves for each cell line. […] The data was expressed as a mean and standard deviation with each experiment consisting of triplicates. Statistical differences between untreated cells and treated cells were determined using Student's t-test (IBM SPSS Statistics 27).

A549 cells [5] = test: Intracellular ROS, CM-H2DCFDA assay, A549 cells; details: A549, treated with IC50 for 24 hours; control (untreated cells) set to 1
Description: (§2) After exposure, cells were washed with PBS and loaded with 2.5 μM of CM-H2DCFDA in phenol red and FBS-free media in the dark for 30 minutes at 37°C. Subsequently, the reaction mixture was aspirated; cells were washed with fresh culture media and replaced with 100 μL of culture media. The DCF fluorescence intensity was measured at 485 nm excitation and 520 nm emission using a FLUOstar Omega fluorescence plate reader (BMG Labtech, Ortenberg, Germany). Results are presented as mean fold change ± standard deviation of three independent experiments.

BEAS-2B cells [6] = test: Intracellular ROS, CM-H2DCFDA assay, BEAS-2B cells; details: treated with IC50 for 24 hours, control (untreated cells) set to 1
Description: as §2

A549 cells [7] = test: Apoptosis by DAPI and AO/PI double staining, A549 cells; details: A549, IC50, 24 hours
Description: (§3) DAPI staining is used to assess apoptosis-related morphological changes such as nuclear fragmentation or condensation. […] AO stains both live and dead cells, whereas PI stains only the dead cells. […] Following incubation, the cells were washed with PBS and then fixed with 1 mL of 4% paraformaldehyde (Sigma-Aldrich, St. Louis, Missouri, USA) and cold 70% ethanol for 10 minutes at room temperature. Then, the cells were stained with a 1 : 1 ratio of 10 µg/mL of DAPI (Nacalai, Tesque chemical, Kyoto, Japan) and 10 μg/mL acridine orange/propidium iodide (Sigma-Aldrich, St. Louis, Missouri, USA) and incubated for 30 minutes in the dark. An Olympus IX71 inverted fluorescence microscope (Olympus, Tokyo, Japan) was used to observe and record the morphology of the cells.

BEAS-2B cells [8] = test: Apoptosis by DAPI and AO/PI double staining, BEAS-2B cells; details: IC50, 24 hours
Description: as §3

O=[N+]([O-])[O-].[Ag+] [AgNO3, silver nitrate]
IC50 (BEAS-2B cells [1]; 24 h): 16 ± 0.03 µM
IC50 (BEAS-2B cells [1]; 48 h): 15 ± 0.02 µM
IC50 (BEAS-2B cells [1]; 72 h): 14 ± 0.02 µM
concentrations decreasing proliferation of BEAS-2B cells to nearly 50% (BEAS-2B cells [1]; after 24 to 74 hours of treatment (so in the source)): 20 to 100 µM

OO [H2O2]
DNA damage class (comet visual scoring, Classes 0–4) (A549 cells [2]): Class 2
% DNA in tail (A549 cells [2]): 35.64 ± 9.31%
Olive tail moment (A549 cells [2]): 9.51 ± 3.49
Tail length (px) (A549 cells [2]): 25.3 ± 6.96 px
DNA damage class (comet visual scoring, Classes 0–4) (BEAS-2B cells [3]): Class 4
% DNA in tail (BEAS-2B cells [3]): 85.86 ± 2.71%
Olive tail moment (BEAS-2B cells [3]): 27.63 ± 4.6
Tail length (px) (BEAS-2B cells [3]): 53.91 ± 9.95 px

N.N.[Cl][Pt][Cl] [Cisplatin]
Selectivity index (SI) (A549 cells [4]; 24 h): 1.32
Selectivity index (SI) (A549 cells [4]; 48 h): 1.66
Selectivity index (SI) (A549 cells [4]; 72 h): 1.08
IC50 (A549 cells [4]; MTT, 24 h): 52.5 ± 7.92 µM
IC50 (A549 cells [4]; MTT, 48 h): 19.1 ± 3.19 µM
IC50 (A549 cells [4]; MTT, 72 h): 17.5 ± 0.6 µM
concentration at which A549 cells were significantly dead (A549 cells [4]; MTT, all three time points (24, 48, 72 h)): 50 µM
IC50 (BEAS-2B cells [1]; 24 h): 69.2 ± 1.75 µM
IC50 (BEAS-2B cells [1]; 48 h): 31.6 ± 3.27 µM
IC50 (BEAS-2B cells [1]; 72 h): 18.84 ± 0.13 µM
concentration at which BEAS-2B cells were significantly dead (BEAS-2B cells [1]; all three time points (24, 48, 72 h)): 65 µM
ROS level, DCF fold (A549 cells [5]): 1.16 ± 0.04 fold change
ROS level, DCF fold (BEAS-2B cells [6]): 1.23 ± 0.01 fold change
DNA damage class (comet visual scoring, Classes 0–4) (A549 cells [2]): Class 3
% DNA in tail (A549 cells [2]): 48.26 ± 4.54%
Olive tail moment (A549 cells [2]): 28.81 ± 4.94
Tail length (px) (A549 cells [2]): 73.83 ± 8.9 px
DNA damage class (comet visual scoring, Classes 0–4) (BEAS-2B cells [3]): Class 4
% DNA in tail (BEAS-2B cells [3]): 63.79 ± 3.01%
Olive tail moment (BEAS-2B cells [3]): 78.49 ± 0.8
Tail length (px) (BEAS-2B cells [3]): 160.07 ± 3.3 px
mode of cell death (DAPI, AO/PI staining), in words (A549 cells [7]): induce apoptosis
mode of cell death (DAPI, AO/PI staining), in words (BEAS-2B cells [8]): induce apoptosis
